PubChem BioAssay AID1963833 (Molecular Pharmacology Branch, DTP, NCI, 2024)

System: 883617-216-R-J1-PDC complex spheroid viability
Test: Anticancer human tumor 883617-216-R-J1-PDC patient-derived bladder carcinoma cell line growth inhibition [POLQ]
Settings: for IC50: curve of first compound; for viability, T/C: stronger effect = lower value
Summary of the method: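 PDC + HUVEC + MSC complex spheroids; POLQ inhibitors ± partner drugs; top conc. at/near clinical Cmax, else 10 microM (SN-38 1 microM), half-log dilutions; 37 degrees C, 5% CO2.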

[1] = second compound 0.0316 µM, first compound 0.00316 µM
[2] = second compound 0.0316 µM, first compound 0.01 µM
[3] = second compound 0.0316 µM, first compound 0.0316 µM
[4] = second compound 0.0316 µM, first compound 0.1 µM
[5] = second compound 0.0316 µM, first compound 0.316 µM
[6] = second compound 0.0316 µM, first compound 1 µM
[7] = second compound 0.1 µM, first compound 0.00316 µM
[8] = second compound 0.1 µM, first compound 0.01 µM
[9] = second compound 0.1 µM, first compound 0.0316 µM
[10] = second compound 0.1 µM, first compound 0.1 µM
[11] = second compound 0.1 µM, first compound 0.316 µM
[12] = second compound 0.1 µM, first compound 1 µM
[13] = second compound 0.316 µM, first compound 0.00316 µM
[14] = second compound 0.316 µM, first compound 0.01 µM
[15] = second compound 0.316 µM, first compound 0.0316 µM
[16] = second compound 0.316 µM, first compound 0.1 µM
[17] = second compound 0.316 µM, first compound 0.316 µM
[18] = second compound 0.316 µM, first compound 1 µM
[19] = second compound 1 µM, first compound 0.00316 µM
[20] = second compound 1 µM, first compound 0.01 µM
[21] = second compound 1 µM, first compound 0.0316 µM
[22] = second compound 1 µM, first compound 0.1 µM
[23] = second compound 1 µM, first compound 0.316 µM
[24] = second compound 1 µM, first compound 1 µM
[25] = second compound 3.16 µM, first compound 0.00316 µM
[26] = second compound 3.16 µM, first compound 0.01 µM
[27] = second compound 3.16 µM, first compound 0.0316 µM
[28] = second compound 3.16 µM, first compound 0.1 µM
[29] = second compound 3.16 µM, first compound 0.316 µM
[30] = second compound 3.16 µM, first compound 1 µM
[31] = second compound 10 µM, first compound 0.00316 µM
[32] = second compound 10 µM, first compound 0.01 µM
[33] = second compound 10 µM, first compound 0.0316 µM
[34] = second compound 10 µM, first compound 0.1 µM
[35] = second compound 10 µM, first compound 0.316 µM
[36] = second compound 10 µM, first compound 1 µM
[37] = second compound 0.0316 µM, first compound 3.16 µM
[38] = second compound 0.0316 µM, first compound 10 µM
[39] = second compound 0.1 µM, first compound 3.16 µM
[40] = second compound 0.1 µM, first compound 10 µM
[41] = second compound 0.316 µM, first compound 3.16 µM
[42] = second compound 0.316 µM, first compound 10 µM
[43] = second compound 1 µM, first compound 3.16 µM
[44] = second compound 1 µM, first compound 10 µM
[45] = second compound 3.16 µM, first compound 3.16 µM
[46] = second compound 3.16 µM, first compound 10 µM
[47] = second compound 10 µM, first compound 3.16 µM
[48] = second compound 10 µM, first compound 10 µM
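Note: spheroids exposed to compounds for seven days before readout.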
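Throughout, for viability, T/C: 100% = DMSO vehicle control viability.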

Compound: CCc1c2c(nc3ccc(O)cc13)-c1cc3c(c(=O)n1C2)COC(=O)[C@]3(O)CC + Nc1ccc(C#CCN(C(=O)Cc2ncc(C(F)(F)F)cc2C(F)(F)F)c2ccc(F)cc2)nn1
- IC50 (second compound 0.0316 µM): 107 nM
- IC50 (second compound 0.1 µM): 169 nM
- IC50 (second compound 0.316 µM): 177 nM
- IC50 (second compound 1 µM): 90.8 nM
- IC50 (second compound 3.16 µM): 168 nM
- IC50 (second compound 10 µM): 278 nM
- viability, T/C [1]: 77.5%
- viability, T/C [2]: 71%
- viability, T/C [3]: 59.1%
- viability, T/C [4]: 51.3%
- viability, T/C [5]: 40%
- viability, T/C [6]: 27.1%
- viability, T/C [7]: 92.6%
- viability, T/C [8]: 68.3%
- viability, T/C [9]: 70.8%
- viability, T/C [10]: 62.3%
- viability, T/C [11]: 39.5%
- viability, T/C [12]: 27.9%
- viability, T/C [13]: 77.5%
- viability, T/C [14]: 76%
- viability, T/C [15]: 72.6%
- viability, T/C [16]: 51%
- viability, T/C [17]: 46.6%
- viability, T/C [18]: 26.8%
- viability, T/C [19]: 86.4%
- viability, T/C [20]: 82.6%
- viability, T/C [21]: 59.3%
- viability, T/C [22]: 50.1%
- viability, T/C [23]: 40.1%
- viability, T/C [24]: 31.4%
- viability, T/C [25]: 94.8%
- viability, T/C [26]: 84.2%
- viability, T/C [27]: 71.1%
- viability, T/C [28]: 52.3%
- viability, T/C [29]: 45.9%
- viability, T/C [30]: 27.4%
- viability, T/C [31]: 93.6%
- viability, T/C [32]: 89.1%
- viability, T/C [33]: 78.9%
- viability, T/C [34]: 59.8%
- viability, T/C [35]: 51.4%
- viability, T/C [36]: 34.1%

Compound: CNCc1ccc(-c2[nH]c3cc(F)cc4c3c2CCNC4=O)cc1 + Nc1ccc(C#CCN(C(=O)Cc2ncc(C(F)(F)F)cc2C(F)(F)F)c2ccc(F)cc2)nn1
- IC50 (second compound 0.0316 µM): > 10000 nM
- IC50 (second compound 0.1 µM): > 10000 nM
- IC50 (second compound 0.316 µM): > 10000 nM
- IC50 (second compound 1 µM): > 10000 nM
- IC50 (second compound 3.16 µM): > 10000 nM
- IC50 (second compound 10 µM): > 10000 nM
- viability, T/C [3]: 93.8%
- viability, T/C [4]: 86.4%
- viability, T/C [5]: 83.8%
- viability, T/C [6]: 101%
- viability, T/C [37]: 110%
- viability, T/C [38]: 92.1%
- viability, T/C [9]: 96.9%
- viability, T/C [10]: 79.8%
- viability, T/C [11]: 96.8%
- viability, T/C [12]: 107%
- viability, T/C [39]: 102%
- viability, T/C [40]: 95.2%
- viability, T/C [15]: 104%
- viability, T/C [16]: 81.3%
- viability, T/C [17]: 88.4%
- viability, T/C [18]: 96.8%
- viability, T/C [41]: 104%
- viability, T/C [42]: 89.8%
- viability, T/C [21]: 95.5%
- viability, T/C [22]: 105%
- viability, T/C [23]: 106%
- viability, T/C [24]: 113%
- viability, T/C [43]: 104%
- viability, T/C [44]: 76.1%
- viability, T/C [27]: 92.4%
- viability, T/C [28]: 102%
- viability, T/C [29]: 91.7%
- viability, T/C [30]: 103%
- viability, T/C [45]: 102%
- viability, T/C [46]: 98.1%
- viability, T/C [33]: 116%
- viability, T/C [34]: 107%
- viability, T/C [35]: 120%
- viability, T/C [36]: 101%
- viability, T/C [47]: 127%
- viability, T/C [48]: 102%

Compound: COc1cccc(OCCCN)c1-c1cc(Nc2cnc(C#N)cn2)n[nH]1 + Nc1ccc(C#CCN(C(=O)Cc2ncc(C(F)(F)F)cc2C(F)(F)F)c2ccc(F)cc2)nn1
- IC50 (second compound 0.0316 µM): 77.4 nM
- IC50 (second compound 0.1 µM): 47.2 nM
- IC50 (second compound 0.316 µM): 87.1 nM
- IC50 (second compound 1 µM): 120 nM
- IC50 (second compound 3.16 µM): 73.3 nM
- IC50 (second compound 10 µM): 85.6 nM
- viability, T/C [1]: 111%
- viability, T/C [2]: 77%
- viability, T/C [3]: 67%
- viability, T/C [4]: 42.8%
- viability, T/C [5]: 37.7%
- viability, T/C [6]: 35.4%
- viability, T/C [7]: 96.9%
- viability, T/C [8]: 95.6%
- viability, T/C [9]: 55.2%
- viability, T/C [10]: 43.6%
- viability, T/C [11]: 41.4%
- viability, T/C [12]: 33.7%
- viability, T/C [13]: 99.3%
- viability, T/C [14]: 91.3%
- viability, T/C [15]: 57.4%
- viability, T/C [16]: 52.6%
- viability, T/C [17]: 40.8%
- viability, T/C [18]: 31.9%
- viability, T/C [19]: 95.3%
- viability, T/C [20]: 78.2%
- viability, T/C [21]: 64.8%
- viability, T/C [22]: 53%
- viability, T/C [23]: 40%
- viability, T/C [24]: 28.6%
- viability, T/C [25]: 85.9%
- viability, T/C [26]: 89.8%
- viability, T/C [27]: 67.1%
- viability, T/C [28]: 39.5%
- viability, T/C [29]: 47.1%
- viability, T/C [30]: 44.5%
- viability, T/C [31]: 109%
- viability, T/C [32]: 89.8%
- viability, T/C [33]: 63.6%
- viability, T/C [34]: 48.8%
- viability, T/C [35]: 39.5%
- viability, T/C [36]: 36.2%

Compound: O=C(c1cc(Cc2n[nH]c(=O)c3ccccc23)ccc1F)N1CCN(C(=O)C2CC2)CC1 + Nc1ccc(C#CCN(C(=O)Cc2ncc(C(F)(F)F)cc2C(F)(F)F)c2ccc(F)cc2)nn1
- IC50 (second compound 0.0316 µM): > 10000 nM
- IC50 (second compound 0.1 µM): > 10000 nM
- IC50 (second compound 0.316 µM): > 10000 nM
- IC50 (second compound 1 µM): > 10000 nM
- IC50 (second compound 3.16 µM): > 10000 nM
- IC50 (second compound 10 µM): > 10000 nM
- viability, T/C [3]: 90%
- viability, T/C [4]: 105%
- viability, T/C [5]: 83.3%
- viability, T/C [6]: 89.8%
- viability, T/C [37]: 90.3%
- viability, T/C [38]: 67.8%
- viability, T/C [9]: 92.8%
- viability, T/C [10]: 109%
- viability, T/C [11]: 92.7%
- viability, T/C [12]: 97.5%
- viability, T/C [39]: 95.4%
- viability, T/C [40]: 86.4%
- viability, T/C [15]: 97.9%
- viability, T/C [16]: 109%
- viability, T/C [17]: 100%
- viability, T/C [18]: 89.1%
- viability, T/C [41]: 75.7%
- viability, T/C [42]: 87.9%
- viability, T/C [21]: 100%
- viability, T/C [22]: 86.8%
- viability, T/C [23]: 99.3%
- viability, T/C [24]: 104%
- viability, T/C [43]: 84.8%
- viability, T/C [44]: 95.3%
- viability, T/C [27]: 90%
- viability, T/C [28]: 99.5%
- viability, T/C [29]: 92.2%
- viability, T/C [30]: 91.3%
- viability, T/C [45]: 81.2%
- viability, T/C [46]: 73%
- viability, T/C [33]: 97%
- viability, T/C [34]: 103%
- viability, T/C [35]: 100%
- viability, T/C [36]: 93.1%
- viability, T/C [47]: 94.2%
- viability, T/C [48]: 73%
